Source: patent US4692443A, “3-bicyclicpyridinium-methyl cephalosporins” (Eli Lilly and Company, priority 1984, dated 1987)
≈ marks a conversion by molar mass, not a printed value. Like-named read-outs stand apart in the source and are kept apart here.

Experiments:
[1] = test system: Staph. aureus V41; assay: standard in vitro agar dilution assay (MIC); format: cell-based; settings: Staphylococcus aureus
[2] = test system: Staph. aureus S13E; assay: microbe, parasite or virus in culture; format: cell-based; settings: Staphylococcus aureus, read-out: Agar Dilution MIC
[3] = test system: Pseudomonas X239; assay: standard in vitro agar dilution assay (MIC); format: cell-based; settings: Pseudomonas strain X239
[4] = test system: Klebsiella X68; assay: standard in vitro agar dilution assay (MIC); format: cell-based
[5] = test system: Staph. epi 222; assay: standard in vitro agar dilution assay (MIC); format: cell-based; settings: Staph. epi strain 222
[6] = test system: Strep. D 9960; assay: standard in vitro agar dilution assay (MIC); format: cell-based; settings: Strep. D strain 9960
[7] = test system: Strep. A C203; assay: standard in vitro agar dilution assay (MIC); format: cell-based; settings: Strep. A strain C203
[8] = Titration (pKa); format: physicochemical; settings: 66% dimethylformamide in water v/v
Source text: Titration (66% dimethylformamide in water v/v) pKa at 4.0, 7.4, 10.7.

[9] = test system: Pseudomonas X528; assay: standard in vitro agar dilution assay (MIC); format: cell-based; settings: Pseudomonas strain X528
Source text: The antibacterial activity of several representative compounds of the invention has been evaluated in standard in vitro agar dilution assays. The following Table presents typical minimum inhibitory concentrations (MIC's) in μg /ml for exemplary compounds when evaluated against typical Gram + and Gram - microorganism.

[10] = test system: Staph. epi EPI1; assay: standard in vitro agar dilution assay (MIC); format: cell-based; settings: Staph. epi strain EPI1
[11] = test system: Enterobacter cloacae EB5; assay: standard in vitro agar dilution assay (MIC); format: cell-based
[12] = test system: Enterobacter aerogenes C32; assay: standard in vitro agar dilution assay (MIC); format: cell-based; settings: Klebsiella aerogenes
[13] = test system: Strep. PN PARK; assay: standard in vitro agar dilution assay (MIC); format: cell-based; settings: Strep. PN strain PARK
[14] = test system: H. influ. 76; assay: standard in vitro agar dilution assay (MIC); format: cell-based; settings: read-out: Agar Dilution MIC
[15] = test system: Klebsiella KAE; assay: standard in vitro agar dilution assay (MIC); format: cell-based; settings: Klebsiella strain KAE; read-out: Agar Dilution MIC
[16] = test system: E. coli N10; assay: standard in vitro agar dilution assay (MIC); format: cell-based; settings: Escherichia coli, N10, read-out: Agar Dilution MIC
[17] = test system: Klebsiella X26; assay: standard in vitro agar dilution assay (MIC); format: cell-based
[18] = test system: E. coli TEM; assay: standard in vitro agar dilution assay (MIC); format: cell-based; settings: Escherichia coli, read-out: Agar Dilution MIC
[19] = test system: Serratia X99; assay: standard in vitro agar dilution assay (MIC); format: cell-based
[20] = test system: Staph. aureus X400; assay: standard in vitro agar dilution assay (MIC); format: cell-based; settings: Staphylococcus aureus; Staph. aureus strain X400
[21] = test system: Strep. D X66; assay: standard in vitro agar dilution assay (MIC); format: cell-based; settings: Strep. D strain X66
[22] = test system: H. influ. C.L.; assay: standard in vitro agar dilution assay (MIC); format: cell-based; settings: read-out: Agar Dilution MIC
[23] = test system: Staph. aureus X1.1; assay: standard in vitro agar dilution assay (MIC); format: cell-based; settings: Staphylococcus aureus; Staph. aureus strain X1.1; read-out: Agar Dilution MIC
[24] = test system: Salmonella X514; assay: standard in vitro agar dilution assay (MIC); format: cell-based; settings: Salmonella strain X514; read-out: Agar Dilution MIC
[25] = test system: E. coli EC14; assay: standard in vitro agar dilution assay (MIC); format: cell-based; settings: Escherichia coli, EC14, read-out: Agar Dilution MIC
[26] = Staph. aureus strain V41, read-out: Agar Dilution MIC
[27] = Enterobacter cloacae, EB5, read-out: Agar Dilution MIC
[28] = Enterobacter aerogenes strain C32, read-out: Agar Dilution MIC
[29] = Serratia, X99, read-out: Agar Dilution MIC
[30] = Klebsiella, X68, read-out: Agar Dilution MIC

CO/N=C(\C(=O)N[C@@H]1C(=O)N2C(C(=O)[O-])=C(C[n+]3cccc4nc(N)sc43)CS[C@H]12)c1csc(N)n1 [Example 15, syn-7-[2-(2-aminothiazol-4-yl)-2-methoxyiminoacetamido]-3-(2-aminothiazolo[5,4-b]pyridinium-4-ylmethyl)-3-cephem-4-carboxylate]
MIC [1, 26]: 2 µg/mL (≈ 3.66 µM) | MIC [2]: 4 µg/mL (≈ 7.32 µM) | MIC [3]: 2 µg/mL (≈ 3.66 µM) | MIC ([4]; Klebsiella strain X68, read-out: Agar Dilution MIC): 4 µg/mL (≈ 7.32 µM) | MIC [5]: 16 µg/mL (≈ 29.3 µM) | MIC [6]: 8 µg/mL (≈ 14.6 µM) | MIC [7]: 0.015 µg/mL (≈ 0.0274 µM) | pKa (second) [8]: 7.4 | pKa (third) [8]: 10.7 | pKa ([8]; read-out: pKa (first)): 4 | MIC [9]: 1 µg/mL (≈ 1.83 µM) | MIC [10]: 2 µg/mL (≈ 3.66 µM)

CO/N=C(\C(=O)NC1C(=O)N2C(C(=O)[O-])=C(C[n+]3cccc4oc(N)nc43)CSC12)c1csc(N)n1 (stereo not drawn) [Example 10, syn-7-[2-(2-aminothiazol-4-yl)-2-methoxyiminoacetamido]-3-(2-aminooxazolo[4,5-b]pyridinium-4-ylmethyl)-3-cephem-4-carboxylate]
MIC [11, 27]: 0.25 µg/mL (≈ 0.471 µM) | MIC [12, 28]: 0.125 µg/mL (≈ 0.236 µM) | MIC [13]: 0.015 µg/mL (≈ 0.0283 µM) | MIC [14]: 0.125 µg/mL (≈ 0.236 µM) | MIC [1, 26]: 4 µg/mL (≈ 7.54 µM) | MIC [15]: 4 µg/mL (≈ 7.54 µM) | MIC [16]: 0.125 µg/mL (≈ 0.236 µM) | MIC [2]: 4 µg/mL (≈ 7.54 µM) | MIC [3]: 2 µg/mL (≈ 3.77 µM) | MIC ([17]; Klebsiella strain X26, read-out: Agar Dilution MIC): 0.03 µg/mL (≈ 0.0565 µM) | MIC ([18]; E. coli strain TEM): 0.03 µg/mL (≈ 0.0565 µM) | MIC [5]: 1 µg/mL (≈ 1.88 µM) | MIC [6]: 16 µg/mL (≈ 30.2 µM) | MIC [7]: 0.015 µg/mL (≈ 0.0283 µM) | MIC [19, 29]: 0.125 µg/mL (≈ 0.236 µM) | MIC [20]: 32 µg/mL (≈ 60.3 µM) | MIC [21]: > 128 µg/mL | MIC [9]: 4 µg/mL (≈ 7.54 µM) | MIC [10]: 2 µg/mL (≈ 3.77 µM)

CO/N=C(\C(=O)NC1C(=O)N2C(C(=O)[O-])=C(C[n+]3ccc4nc(C(C)(C)C)sc4c3)CSC12)c1csc(N)n1 (stereo not drawn) [Example 17, syn-7-[2-(2-aminothiazol-4-yl)-2-methoxyiminoacetamido]-3-(2-tert.-butylthiazolo[5,4-c]pyridinium-5-ylmethyl)-3-cephem-4-carboxylate]
MIC ([11]; Enterobacter cloacae strain EB5, read-out: Agar Dilution MIC): 1 µg/mL (≈ 1.7 µM) | MIC ([12]; C32, read-out: Agar Dilution MIC): 0.5 µg/mL (≈ 0.851 µM) | MIC [13]: 0.015 µg/mL (≈ 0.0255 µM) | MIC [14]: 0.125 µg/mL (≈ 0.213 µM) | MIC [22]: 0.25 µg/mL (≈ 0.425 µM) | MIC [1, 26]: 4 µg/mL (≈ 6.81 µM) | MIC [15]: 4 µg/mL (≈ 6.81 µM) | MIC [16]: 0.5 µg/mL (≈ 0.851 µM) | MIC [2]: 8 µg/mL (≈ 13.6 µM) | MIC [23]: 1 µg/mL (≈ 1.7 µM) | MIC [24]: 0.5 µg/mL (≈ 0.851 µM) | MIC [4, 30]: 0.5 µg/mL (≈ 0.851 µM) | MIC [5]: 1 µg/mL (≈ 1.7 µM) | MIC [6]: 4 µg/mL (≈ 6.81 µM) | MIC [7]: 0.015 µg/mL (≈ 0.0255 µM) | MIC ([19]; Serratia strain X99, read-out: Agar Dilution MIC): 1 µg/mL (≈ 1.7 µM) | MIC [20]: 32 µg/mL (≈ 54.4 µM) | MIC [21]: > 128 µg/mL | MIC [10]: 4 µg/mL (≈ 6.81 µM)

CO/N=C(\C(=O)NC1C(=O)N2C(C(=O)[O-])=C(C[n+]3ccc4nc(C)sc4c3)CSC12)c1csc(N)n1 (stereo not drawn) [Example 16, syn-7-[2-(2-aminothiazol-4-yl)-2-methoxyiminoacetamido]-3-(2-methylthiazolo[5,4-c]pyridinium-5-ylmethyl)-3-cephem-4-carboxylate]
MIC [11, 27]: 0.125 µg/mL (≈ 0.229 µM) | MIC ([14]; H. influ. strain 76): 0.015 µg/mL (≈ 0.0275 µM) | MIC [1, 26]: 4 µg/mL (≈ 7.33 µM) | MIC [15]: 1 µg/mL (≈ 1.83 µM) | MIC [2]: 4 µg/mL (≈ 7.33 µM) | MIC [3]: 4 µg/mL (≈ 7.33 µM) | MIC [23]: 1 µg/mL (≈ 1.83 µM) | MIC [24]: 0.03 µg/mL (≈ 0.055 µM) | MIC [5]: 1 µg/mL (≈ 1.83 µM) | MIC [6]: 8 µg/mL (≈ 14.7 µM) | MIC [7]: 0.015 µg/mL (≈ 0.0275 µM) | MIC [19, 29]: 0.125 µg/mL (≈ 0.229 µM) | MIC [20]: 8 µg/mL (≈ 14.7 µM) | MIC [21]: > 128 µg/mL | MIC [9]: 8 µg/mL (≈ 14.7 µM) | MIC [10]: 2 µg/mL (≈ 3.67 µM)

CC(C)(O/N=C(\C(=O)NC1C(=O)N2C(C(=O)[O-])=C(C[n+]3ccc4[nH]cnc4c3)CSC12)c1csc(N)n1)C(=O)O (stereo not drawn) [Example 1, syn-7-[2-(2-Aminothiazol-4-yl)-2-(2-carboxyprop-2-yl)oxyiminoacetamido]-3-(1H-imidazolo[4,5c]pyridinium-5-ylmethyl)-3-cephem-4-carboxylate]
MIC [11, 27]: 0.25 µg/mL (≈ 0.426 µM) | MIC [12, 28]: 1 µg/mL (≈ 1.7 µM) | MIC ([22]; H. influ. strain C.L.): 0.03 µg/mL (≈ 0.0511 µM) | MIC ([1]; V41, read-out: Agar Dilution MIC): 32 µg/mL (≈ 54.6 µM) | MIC [25]: 0.125 µg/mL (≈ 0.213 µM) | MIC [15]: 1 µg/mL (≈ 1.7 µM) | MIC [16]: 0.5 µg/mL (≈ 0.852 µM) | MIC [2]: 32 µg/mL (≈ 54.6 µM) | MIC [3]: 2 µg/mL (≈ 3.41 µM) | MIC [23]: 8 µg/mL (≈ 13.6 µM) | MIC ([17]; Klebsiella, X26, read-out: Agar Dilution MIC): 0.125 µg/mL (≈ 0.213 µM) | MIC [24]: 0.5 µg/mL (≈ 0.852 µM) | MIC [18]: 0.125 µg/mL (≈ 0.213 µM) | MIC [4, 30]: 0.125 µg/mL (≈ 0.213 µM) | MIC [5]: 16 µg/mL (≈ 27.3 µM) | MIC [6]: 16 µg/mL (≈ 27.3 µM) | MIC [19, 29]: 0.5 µg/mL (≈ 0.852 µM) | MIC [20]: 128 µg/mL (≈ 218 µM) | MIC [21]: > 128 µg/mL | MIC [9]: 8 µg/mL (≈ 13.6 µM) | MIC [10]: 32 µg/mL (≈ 54.6 µM)
